# Reference: patent US10858362B2, “Imidazopyrazinones as PDE1 inhibitors” (H. Lundbeck A/S, priority 2015, dated 2020)
# Legend:
# Format in all cases: biochemical
# PDE1A = PDE1A (Homo sapiens (Human), UniProt P54750); test: PDE1 inhibition assay, PDE1A; settings: for IC50: 15 nM tritium labelled cAMP; for inhibition at 2 µM: read-out: PDE1A, % inhibition (at 2 μM)
# Description: (§1) Reactions were initiated by addition of the cyclic nucleotide substrate, and reactions were allowed to proceed for 1 h at room temperature before being terminated through mixing with 20 μL (0.2 mg) yttrium silicate SPA beads (PerkinElmer).
# PDE9 = PDE9 (Homo sapiens (Human), UniProt O76083); test: PDE9 inhibition assay
# Procedure, shortened: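 Human PDE9 in 50 mM HEPES pH 7.6, 10 mM MgCl2, 0.02% Tween20, enzyme set to convert 20-25% of 10 nM ^3H-cAMP substrate; inhibitors at varying amounts. 1 hr incubation, stopped with yttrium silicate SPA beads, settled 1 hr in dark, then scintillation counted.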
# PDE1C = PDE1C (Homo sapiens (Human), UniProt Q14123); test: PDE1 inhibition assay, PDE1C; settings: 15 nM tritium labelled cAMP
# Description: as §1, with “(PerkinElmer). The beads were allowed to settle for 1 h in the dark before the plates were counted in a Wallac 1450 Microbeta counter.” for “(PerkinElmer).”
# PDE1B = PDE1B (Homo sapiens (Human), UniProt Q01064); test: PDE1 inhibition assay, PDE1B; settings: for IC50: 15 nM tritium labelled cAMP; for inhibition at 2 µM: read-out: PDE1B, % inhibition (at 2 μM)
# Description: as §1, with “(PerkinElmer). The beads were allowed to settle for 1 h in the dark before the plates were counted in a Wallac 1450 Microbeta counter.” for “(PerkinElmer).”
# Sequence of PDE1A (P54750 whole entry): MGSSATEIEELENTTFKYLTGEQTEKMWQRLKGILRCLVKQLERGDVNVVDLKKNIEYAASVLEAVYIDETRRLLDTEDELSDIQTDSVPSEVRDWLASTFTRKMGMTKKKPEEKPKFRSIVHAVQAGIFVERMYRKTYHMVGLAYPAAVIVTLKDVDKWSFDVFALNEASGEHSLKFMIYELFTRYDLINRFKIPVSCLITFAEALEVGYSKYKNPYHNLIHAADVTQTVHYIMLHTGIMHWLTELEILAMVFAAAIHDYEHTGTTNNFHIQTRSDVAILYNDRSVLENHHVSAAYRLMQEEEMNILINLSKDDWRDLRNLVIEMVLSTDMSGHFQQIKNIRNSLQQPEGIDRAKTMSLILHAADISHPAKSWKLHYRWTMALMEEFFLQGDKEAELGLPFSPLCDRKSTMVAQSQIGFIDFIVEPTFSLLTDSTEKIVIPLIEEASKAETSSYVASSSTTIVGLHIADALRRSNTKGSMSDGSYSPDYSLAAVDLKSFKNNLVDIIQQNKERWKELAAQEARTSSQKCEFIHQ
# Sequence of PDE9 (O76083 whole entry): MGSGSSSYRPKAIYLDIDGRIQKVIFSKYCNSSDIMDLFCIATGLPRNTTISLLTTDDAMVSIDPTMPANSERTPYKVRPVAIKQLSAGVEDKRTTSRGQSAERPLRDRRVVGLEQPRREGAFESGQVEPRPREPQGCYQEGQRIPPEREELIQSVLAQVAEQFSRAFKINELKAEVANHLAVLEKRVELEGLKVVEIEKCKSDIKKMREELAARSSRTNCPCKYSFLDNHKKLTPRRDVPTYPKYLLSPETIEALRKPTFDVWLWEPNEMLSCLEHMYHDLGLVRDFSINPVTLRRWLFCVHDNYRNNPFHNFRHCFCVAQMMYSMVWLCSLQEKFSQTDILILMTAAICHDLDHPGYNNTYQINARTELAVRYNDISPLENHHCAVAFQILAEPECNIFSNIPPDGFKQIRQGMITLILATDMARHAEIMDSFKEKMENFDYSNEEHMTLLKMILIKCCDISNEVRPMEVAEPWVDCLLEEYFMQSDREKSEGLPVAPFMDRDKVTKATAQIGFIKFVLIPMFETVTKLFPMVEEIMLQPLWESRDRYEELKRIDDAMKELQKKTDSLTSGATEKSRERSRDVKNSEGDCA
# Sequence of PDE1C (Q14123 whole entry): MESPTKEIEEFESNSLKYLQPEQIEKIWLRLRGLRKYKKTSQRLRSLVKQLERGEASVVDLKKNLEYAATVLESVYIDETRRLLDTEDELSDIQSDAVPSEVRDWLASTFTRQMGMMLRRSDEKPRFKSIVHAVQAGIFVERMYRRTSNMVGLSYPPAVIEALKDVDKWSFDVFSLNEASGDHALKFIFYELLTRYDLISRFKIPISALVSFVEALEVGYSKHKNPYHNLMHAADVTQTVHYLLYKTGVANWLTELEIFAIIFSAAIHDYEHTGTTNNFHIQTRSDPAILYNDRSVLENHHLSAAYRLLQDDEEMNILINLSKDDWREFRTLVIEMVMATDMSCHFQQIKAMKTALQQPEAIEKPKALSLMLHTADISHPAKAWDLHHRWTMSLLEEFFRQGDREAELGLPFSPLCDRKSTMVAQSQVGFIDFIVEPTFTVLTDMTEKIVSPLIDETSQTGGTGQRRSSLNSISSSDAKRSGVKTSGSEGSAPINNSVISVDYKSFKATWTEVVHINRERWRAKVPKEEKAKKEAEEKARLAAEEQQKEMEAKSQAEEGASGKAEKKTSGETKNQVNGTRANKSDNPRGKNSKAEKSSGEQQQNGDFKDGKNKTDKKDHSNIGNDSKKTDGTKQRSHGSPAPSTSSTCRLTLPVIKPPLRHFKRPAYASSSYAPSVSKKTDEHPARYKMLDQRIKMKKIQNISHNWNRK
# Sequence of PDE1B (Q01064 whole entry): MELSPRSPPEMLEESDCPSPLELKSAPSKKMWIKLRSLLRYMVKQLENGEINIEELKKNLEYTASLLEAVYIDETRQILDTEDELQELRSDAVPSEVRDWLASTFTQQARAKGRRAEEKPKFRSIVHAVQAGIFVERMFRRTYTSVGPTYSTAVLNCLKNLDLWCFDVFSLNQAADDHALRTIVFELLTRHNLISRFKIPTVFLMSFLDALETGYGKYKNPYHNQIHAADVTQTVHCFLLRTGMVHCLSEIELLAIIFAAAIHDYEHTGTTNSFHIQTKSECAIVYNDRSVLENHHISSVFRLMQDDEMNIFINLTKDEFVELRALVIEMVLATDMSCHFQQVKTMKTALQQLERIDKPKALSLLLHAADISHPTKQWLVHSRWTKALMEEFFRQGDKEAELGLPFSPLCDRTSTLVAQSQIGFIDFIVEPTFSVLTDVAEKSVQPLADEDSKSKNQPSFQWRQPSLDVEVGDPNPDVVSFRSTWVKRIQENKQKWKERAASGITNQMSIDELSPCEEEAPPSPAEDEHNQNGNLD
Compound,IC50 (PDE1A),inhibition at 10 µM (PDE9),IC50 (PDE1C),IC50 (PDE1B),inhibition at 2 µM (PDE1A),inhibition at 2 µM (PDE1B),"percent inhibition of PDE1A at 2 µM (PDE1A; at 2 μM, % sign not given)","inhibition at 1 µM (PDE1B; read-out: PDE1B, % inhibition (at 1 μM))","inhibition at 10 µM (PDE1A; read-out: PDE1A, % inhibition (at 10 μM))",% inhibition of PDE9 at 10 microM (PDE9; at 10 microM)
"CCc1cn2c(C3CCOCC3)ncc2c(=O)n1Cc1cccc(F)c1 [Example 54, 6-ethyl-7-(3-fluorobenzyl)-3-(tetrahydro-2H-pyran-4-yl)imidazo[1,5-a]pyrazin-8(7H)-one]",62 nM,23%,12 nM,53 nM,,,,,,
"CCc1cn2c(C3CCOCC3)ncc2c(=O)n1Cc1ccc(OC)cc1 [Example 44, 6-ethyl-7-(4-methoxybenzyl)-3-(tetrahydro-2H-pyran-4-yl)imidazo[1,5-a]pyrazin-8(7H)-one]",40 nM,18%,16 nM,5 nM,,,,,,
"COc1cccc(Cn2c(C)cn3c(C4CCOCC4)ncc3c2=O)c1 [Example 20, 7-(3-Methoxybenzyl)-6-methyl-3-(tetrahydro-2H-pyran-4-yl)imidazo[1,5-a]pyrazin-8(7H)-one]",416 nM,-38%,62 nM,175 nM,,,,,,
"Cc1cn2c(C3CCOCC3)ncc2c(=O)n1Cc1ccc(OC2CC2)cc1 [Example 39, 7-(4-cyclopropoxybenzyl)-6-methyl-3-(tetrahydro-2H-pyran-4-yl)imidazo[1,5-a]pyrazin-8(7H)-one]",413 nM,23%,364 nM,118 nM,,,,,,
"CCCc1ncc2c(=O)n(Cc3ccc(OC)cc3)c(C)cn12 [Example 56, 7-(4-methoxybenzyl)-6-methyl-3-propylimidazo[1,5-a]pyrazin-8(7H)-one]",65 nM,7%,43 nM,21 nM,,,,,,
"COc1ccc(Cn2c(C)cn3c(C4CC(C)OC(C)C4)ncc3c2=O)cc1 (stereo not shown) [Example 84, 3-(2,6-dimethyltetrahydro-2H-pyran-4-yl)-7-(4-methoxybenzyl)-6-methylimidazo[1,5-a]pyrazin-8(7H)-one]",627 nM,-5%,337 nM,103 nM,,,,,,
"Cc1nc(Cn2c(C)cn3c(C4CCOCC4)ncc3c2=O)cs1 [Example 78, 6-methyl-7-((2-methylthiazol-4-yl)methyl)-3-(tetrahydro-2H-pyran-4-yl)imidazo[1,5-a]pyrazin-8(7H)-one]",1690 nM,6%,251 nM,641 nM,,,,,,
"Cc1cc(Cn2c(C)cn3c(C4CCOCC4)ncc3c2=O)on1 [Example 83, 6-methyl-7-((3-methylisoxazol-5-yl)methyl)-3-(tetrahydro-2H-pyran-4-yl)imidazo[1,5-a]pyrazin-8(7H)-one]",4440 nM,-4%,1610 nM,2290 nM,,,,,,
"COc1ccc(Cn2c(C)cn3c([C@@]4(C)C[C@@H]5CC[C@H]4O5)ncc3c2=O)cc1 [Example 70, 7-(4-methoxybenzyl)-6-methyl-3-((1R,2R,4S)-2-methyl-7-oxabicyclo[2.2.1]heptan-2-yl)imidazo[1,5-a]pyrazin-8(7H)-one]",29 nM,-11%,28 nM,17 nM,,,,,,
"COc1ccc(Cn2c(C)cn3c(C4CCc5ccc(Cl)cc54)ncc3c2=O)cc1 (stereo not shown) [Example 74, 3-(6-chloro-2,3-dihydro-1H-inden-1-yl)-7-(4-methoxybenzyl)-6-methylimidazo[1,5-a]pyrazin-8(7H)-one]",5 nM,-19%,3 nM,2 nM,,,,,,
"O=c1c2cnc(C3CCOCC3)n2ccn1CC1CCCC1 [Example 10, 7-(Cyclopentylmethyl)-3-(tetrahydro-2H-pyran-4-yl)imidazo[1,5-a]pyrazin-8(7H)-one]",,8%,79 nM,,73%,88%,,,,
"Cc1cn2c(C3CCOCC3)ncc2c(=O)n1Cc1ccccc1Cl [Example 19, 7-(2-Chlorobenzyl)-6-methyl-3-(tetrahydro-2H-pyran-4-yl)imidazo[1,5-a]pyrazin-8(7H)-one]",46 nM,18%,10 nM,68 nM,,,,,,
"COc1ccc(Cn2c(C)cn3c([C@H](C)c4ccccc4)ncc3c2=O)cc1 [Example 72, (R)-7-(4-methoxybenzyl)-6-methyl-3-(1-phenylethyl)imidazo[1,5-a]pyrazin-8(7H)-one]",90 nM,9%,43 nM,12 nM,,,,,,
"O=c1c2cnc(C3CCOCC3)n2cc(Cc2ccccc2)n1CC1CCCCC1 [Example 3, 6-Benzyl-7-(cyclohexylmethyl)-3-(tetrahydro-2H-pyran-4-yl)imidazo[1,5-a]pyrazin-8(7H)-one]",8 nM,-6%,6 nM,12 nM,,,,,,
"Cc1cn2c(C3CCOCC3)ncc2c(=O)n1Cc1ccccc1 [Example 16, 7-Benzyl-6-methyl-3-(tetrahydro-2H-pyran-4-yl)imidazo[1,5-a]pyrazin-8(7H)-one]",85 nM,19%,12 nM,57 nM,,,,,,
"Cc1cn2c(C3CCOCC3)ncc2c(=O)n1Cc1cccc(C#N)c1 [Example 45, 3-((6-methyl-8-oxo-3-(tetrahydro-2H-pyran-4-yl)imidazo[1,5-a]pyrazin-7(8H)-yl)methyl)benzonitrile]",,6%,149 nM,,,,64,54%,,
"Cc1cn2c(C3CCOCC3)ncc2c(=O)n1Cc1ccc(OC(F)F)cc1 [Example 40, 7-(4-(difluoromethoxy)benzyl)-6-methyl-3-(tetrahydro-2H-pyran-4-yl)imidazo[1,5-a]pyrazin-8(7H)-one]",73 nM,-25%,52 nM,27 nM,,,,,,
"Cc1cc(Cn2c(C)cn3c(C4CCOCC4)ncc3c2=O)no1 [Example 82, 6-methyl-7-((5-methylisoxazol-3-yl)methyl)-3-(tetrahydro-2H-pyran-4-yl)imidazo[1,5-a]pyrazin-8(7H)-one]",,7%,1030 nM,1500 nM,,,,,67%,
"COc1ccc(Cn2c(C)cn3c([C@@H](C)c4ccccc4)ncc3c2=O)cc1 [Example 71, (S)-7-(4-methoxybenzyl)-6-methyl-3-(1-phenylethyl)imidazo[1,5-a]pyrazin-8(7H)-one]",211 nM,13%,538 nM,238 nM,,,,,,
"COc1ccc(Cn2c(C)cn3c(C(C)(C)O)ncc3c2=O)cc1 [Example 86, 3-(2-hydroxypropan-2-yl)-7-(4-methoxybenzyl)-6-methylimidazo[1,5-a]pyrazin-8(7H)-one]",193 nM,-11%,214 nM,118 nM,,,,,,
"Cc1cn2c(C3CCOCC3)ncc2c(=O)n1CC1CCCCC1 [Example 4, 7-(Cyclohexylmethyl)-6-methyl-3-(tetrahydro-2H-pyran-4-yl)imidazo[1,5-a]pyrazin-8(7H)-one]",11 nM,-5%,7 nM,25 nM,,,,,,
"COc1ccc(Cn2c(C)cn3c(N4CCOC[C@H]4C)ncc3c2=O)cc1 [Example 95, (R)-7-(4-methoxybenzyl)-6-methyl-3-(3-methylmorpholino)imidazo[1,5-a]pyrazin-8(7H)-one]",258 nM,9%,218 nM,162 nM,,,,,,
"O=c1c2cnc(C3CC3)n2ccn1Cc1cccc(F)c1 [Example 6, 3-Cyclopropyl-7-(3-fluorobenzyl)imidazo[1,5-a]pyrazin-8(7H)-one]",,25%,290 nM,,68%,81%,,,,
"O=c1c2cnc(C3CCOCC3)n2ccn1CC1CCCCCC1 [Example 12, 7-(Cycloheptylmethyl)-3-(tetrahydro-2H-pyran-4-yl)imidazo[1,5-a]pyrazin-8(7H)-one]",30 nM,12%,16 nM,21 nM,,,,,,
"Cc1cn2c(C3CCOCC3)ncc2c(=O)n1CC1CCCC1 [Example 63, 7-(cyclopentylmethyl)-6-methyl-3-(tetrahydro-2H-pyran-4-yl)imidazo[1,5-a]pyrazin-8(7H)-one]",183 nM,-3%,17 nM,82 nM,,,,,,
"Cc1cn2c([C@H]3CCCOC3)ncc2c(=O)n1Cc1cccc(F)c1 (single isomer, unassigned; isomer 2) [100, isomer 2]",333 nM,,33 nM,93 nM,,,,,,−21%
"COC1(c2ncc3c(=O)n(Cc4cccc(F)c4)c(C)cn23)CCOCC1 [Example 28, 7-(3-fluorobenzyl)-3-(4-methoxytetrahydro-2H-pyran-4-yl)-6-methylimidazo[1,5-a]pyrazin-8(7H)-one]",663 nM,13%,72 nM,737 nM,,,,,,
"COc1ccc(Cn2c(C)cn3c(N4CCOCC4)ncc3c2=O)cc1 [Example 93, 3-(morpholino)-7-(4-methoxybenzyl)-6-methylimidazo[1,5-a]pyrazin-8(7H)-one]",96 nM,23%,99 nM,52 nM,,,,,,
